Columns and labels:
[1] = Appetite suppression: high fat food consumption in fasted rats (4-Hour and 24-Hour Consumption); type: in vivo, Sprague-Dawley rats; settings: for reduction in effective dose of sibutramine: 30 mg/kg of telenzepine co-administered, effective dose lowered to 1 mg/kg
Source text: Appetite Suppression: Three-month-old (300-350 grams) male, Sprague-Dawley rats (individually housed) were used to assess compounds for their appetite suppressant effects. Rats were acclimatized to a “high fat” food diet (BioServ Diet #F3282 or Research Diets #12451) for two weeks prior to testing (access to food and water ad libitum). One day prior to the experiment (at 5:00 PM), food was removed from the cages in order to motivate feeding when the food was returned the following morning (water remained available throughout the experiment). Prior to presentation of the food, rats (n=8-10/dose group) were dosed intraperitoneally (ip) or orally (po) with the compound under investigation, returned to their home cage and immediately given a pre-weighed amount of food. Four hours after administration, the food was removed from the cage, weighed, recorded (4-Hour Consumption) and returned to the rat until the following morning. Twenty-four hours after administration, the remaining food was again weighed and recorded (24-Hour Consumption). Cumulative consumption (expressed in grams) was calculated for both the four and the twenty-four hour intervals. In this assay, vehicle-treated rats typically consume approximately 8 grams over the four-hour interval and approximately 25 grams over the twenty-four-hour interval.
Treatment effects are presented in Table 1 and FIGS. 1-5 (4-Hour Consumption) and Table 2 and FIGS. 6-10 (24-Hour Consumption). The effects are given as both Raw Consumption (in grams ±SEM [1 standard error of the mean]) and as % Reduction in 4-Hour or 24-Hour Consumption=[1-(Consumption following Drug Treatment/Consumption following Vehicle Treatment)]×100%. Similar superscripts in the Dose column of Tables 1 and 2 denote values derived from the same experiment (to facilitate comparisons between individual treatments and co-administrations). Statistical analyses were performed using a 1-way ANOVA (analysis of variance) followed by a Bonferroni multiple comparison test with the overall alpha set at 0.05. In Tables 1 and 2, asterisks (*) denote significant effects compared to vehicle-treated rats, while letters (a or b) denote significant effects compared to rats treated with a single compound (“a” for significance from antidepressant and “b” for significance from telenzepine). In Tables 1 and 2, one symbol denotes p<0.05, two symbols denote p<0.01 and three symbols denote p<0.001). The symbols used for denoting statistical significance may be different in the corresponding figures.

[2] = Reduction in weight gain of rats on a high fat diet (two-week treatment); type: in vivo, Sprague-Dawley rats; settings: for % Reduction: treatment minus vehicle % weight gain
Experimental: Reduction in Weight Gain: Three- to four-month-old (475-550 grams) male, Sprague-Dawley rats (individually housed) were used to assess compounds for their ability to prevent weight gain. At the onset of chronic experiments, rats had been maintained (ad libitum access) on a “high fat” diet (BioServ Diet #F3282 or Research Diets #12451) for approximately one month. Individual body weights and water consumptions were recorded three times per week throughout the duration of the experiment. After approximately two weeks of data collection, rats were counter-balanced to produce treatment groups with equivalent mean body weights. Under isofluorane-induced anesthesia, rats were surgically implanted (subscapular, subcutaneous [sc] placement) with osmotic mini-pumps (Alzet 2mL2) containing the appropriate drug concentration (based on mean body weights and calculated durations of delivery). Alternatively, for studies using the oral route of administration, rats were dosed by gavage daily over 14 days at a volume of 3 mL/kg. Data collection was continued under drug treatment for approximately two more weeks. Change in body weight (expressed in grams) was calculated for the treatment interval. In this assay, vehicle-treated rats typically gain approximately 35-40 grams (+9%) over the two-week interval. Treatment effects are presented in Table 3 as % Weight Gain=[(Body Weight at End of Drug Infusion−Baseline Body Weight)/Baseline Body Weight]×100%, for both Vehicle and Treatment groups; as well as % Reduction=(% Weight Gain for Treatment group−% Weight Gain for Vehicle group). Body weights throughout the treatment period are presented in FIGS. 11-15 as the percentage of baseline body weight. Similar superscripts in the Dose column of Table 3 denote values derived from the same experiment (to facilitate comparisons between individual treatments and co-administrations). Statistical analyses were performed using a 1-way ANOVA (analysis of variance) followed by a Bonferroni multiple comparison test with the overall alpha set at 0.05. In Table 3, asterisks (*) denote significant effects compared to vehicle-treated rats, while letters (a or b) denote significant effects compared to rats treated with a single compound (“a” for significance from antidepressant and “b” for significance from telenzepine). In Table 3, one symbol denotes p<0.05, two symbols denote p<0.01 and three symbols denote p<0.001). The symbols used for denoting statistical significance may be different in the corresponding figures.

[3] = local microinjection; cited from earlier work
[4] = 24 h, 10 mg/kg po, experiment d

For `COc1ccc(C(CN(C)C)C2(O)CCCCC2)cc1` (stereo not drawn) [Venlafaxine, venlafaxine], the “Treatment Consumption” value ([1]; 4 h, 30 mg/kg ip, experiment b) was 6.1 ± 0.84 g/4 Hrs, the “% Reduction in Consumption” value ([1]; 4 h, 30 mg/kg ip, experiment b, 30 mg/kg) was 13% and the “% Reduction in Consumption” value ([1]; 4 h, 30 mg/kg ip, experiment b, listed as venlafaxine, 30 mg/kg) was 13%. For the same molecule, the “Treatment Consumption” value ([1]; 24 h, 30 mg/kg ip, experiment b) was 24.9 ± 1.52 g/24 Hrs, the “% Reduction in Consumption” value ([1]; 24 h, 30 mg/kg ip, experiment b, 30 mg/kg) was 0% and the “% Reduction in Consumption” value ([1]; 24 h, 30 mg/kg ip, experiment b, listed as venlafaxine, 30 mg/kg) was 0%. For the same molecule, the “reduction in body weight compared to vehicle treated rats” value ([2]; 30 mg/kg of venlafaxine alone) was 0.7%, the “Treatment: % Weight Gain” value ([2]; 30 mg/kg sc, experiment b) was 7.4 ± 0.5% and the “% Reduction” value ([2]; 30 mg/kg sc, experiment b) was −0.7%.

In the case of `CN[C@H]1CC[C@@H](c2ccc(Cl)c(Cl)c2)c2ccccc21` [Sertraline, sertraline], the “Treatment Consumption” value ([1]; 4 h, 10 mg/kg ip, experiment a) is reported as 6.0 ± 0.88 g/4 Hrs, the “% Reduction in Consumption” value ([1]; 4 h, 10 mg/kg ip, experiment a, 10 mg/kg) is reported as 21% and the “% Reduction in Consumption” value ([1]; 4 h, 10 mg/kg ip, experiment a, listed as sertraline, 10 mg/kg) is reported as 21%. For the same molecule, the “Treatment Consumption” value ([1]; 4 h, 30 mg/kg ip, experiment a) was 5.6 ± 0.73 g/4 Hrs, the “% Reduction in Consumption” value ([1]; 4 h, 30 mg/kg ip, experiment a, 30 mg/kg) was 27% and the “% Reduction in Consumption” value ([1]; 4 h, 30 mg/kg ip, experiment a, listed as sertraline, 30 mg/kg) was 27%. The “Treatment Consumption” value ([1]; 24 h, 10 mg/kg ip, experiment a) was 23.5 ± 0.71 g/24 Hrs, the “% Reduction in Consumption” value ([1]; 24 h, 10 mg/kg ip, experiment a, 10 mg/kg) was 2% and the “% Reduction in Consumption” value ([1]; 24 h, 10 mg/kg ip, experiment a, listed as sertraline, 10 mg/kg) was 2%. For the same molecule, the “Treatment Consumption” value ([1]; 24 h, 30 mg/kg ip, experiment a) was 17.1 ± 1.60 g/24 Hrs, the “% Reduction in Consumption” value ([1]; 24 h, 30 mg/kg ip, experiment a, 30 mg/kg) was 28% and the “% Reduction in Consumption” value ([1]; 24 h, 30 mg/kg ip, experiment a, listed as sertraline, 30 mg/kg) was 28%. For the same molecule, the “Treatment: % Weight Gain” value ([2]; 5 mg/kg sc) was 7.2 ± 1.2%, the “% Reduction” value ([2]; 5 mg/kg sc) was −2.1% and the “Treatment: % Weight Gain” value ([2]; 10 mg/kg sc) was 6.0 ± 0.8%. The “% Reduction” value ([2]; 10 mg/kg sc) was −3.1%, the “reduction in body weight compared to vehicle treated rats” value ([2]; 15 mg/kg of sertraline alone) was 6.8% and the “Treatment: % Weight Gain” value ([2]; 15 mg/kg sc, experiment b) was 2.8 ± 0.8%. The “% Reduction” value ([2]; 15 mg/kg sc, experiment b) was −6.8%, the “Treatment: % Weight Gain” value ([2]; 20 mg/kg sc) was 2.8 ± 0.7% and the “% Reduction” value ([2]; 20 mg/kg sc) was −3.5%.

For `CN1CCN(CC(=O)N2c3ccccc3C(=O)Nc3cccnc32)CC1` [pirenzepine, 5,11-Dihydro-11-[(4-methyl-1-piperazinyl)acetyl]-6H-pyrido[2,3-b][1,4]benzodiazepin-6-one], the “dopamine efflux in the striatum” value [3] is listed as “decreased dopamine efflux”.

With `CN(C)CCCC1(c2ccc(F)cc2)OCc2cc(C#N)ccc21` (stereo not drawn) [Citalopram, citalopram] the “Treatment Consumption” value ([1]; 4 h, 25 mg/kg ip, experiment a) was 5.3 ± 0.72 g/4 Hrs, the “% Reduction in Consumption” value ([1]; 4 h, 25 mg/kg ip, experiment a, 25 mg/kg) was 31% and the “% Reduction in Consumption” value ([1]; 4 h, 25 mg/kg ip, experiment a, listed as citalopram, 25 mg/kg) was 31%. The “Treatment Consumption” value ([1]; 24 h, 25 mg/kg ip, experiment a) was 23.0 ± 0.71 g/24 Hrs, the “% Reduction in Consumption” value ([1]; 24 h, 25 mg/kg ip, experiment a, 25 mg/kg) was 4% and the “% Reduction in Consumption” value ([1]; 24 h, 25 mg/kg ip, experiment a, listed as citalopram, 25 mg/kg) was 4%. For the same molecule, the “Treatment: % Weight Gain” value ([2]; 15 mg/kg sc, experiment a) was 6.2 ± 1.0% and the “% Reduction” value ([2]; 15 mg/kg sc, experiment a) was −2.4%.

For `CC(C)CC(N(C)C)C1(c2ccc(Cl)cc2)CCC1` (stereo not drawn) [Sibutramine, sibutramine], the “% Reduction in Consumption” value ([1]; 4 h, 1 mg/kg po, experiment c) was 0%, the “Treatment Consumption” value ([1]; 4 h, 1 mg/kg po, experiment c) was 10.1 ± 1.24 g/4 Hrs and the “% Reduction in Consumption” value ([1]; 4 h, 1 mg/kg po, experiment d) was 28%. The “Treatment Consumption” value ([1]; 4 h, 1 mg/kg po, experiment d) was 4.9 ± 0.68 g/4 Hrs, the “% Reduction in Consumption” value ([1]; 4 h, 3 mg/kg po, experiment c) was 23% and the “Treatment Consumption” value ([1]; 4 h, 3 mg/kg po, experiment c) was 8.0 ± 1.29 g/4 Hrs. For the same molecule, the “% Reduction in Consumption” value ([1]; 4 h, 3 mg/kg po, experiment d) was 54%, the “Treatment Consumption” value ([1]; 4 h, 3 mg/kg po, experiment d) was 3.2 ± 0.33 g/4 Hrs and the “% Reduction in Consumption” value ([1]; 4 h, 10 mg/kg po, experiment d) was 38%. For the same molecule, the “Treatment Consumption” value ([1]; 4 h, 10 mg/kg po, experiment d) was 4.3 ± 0.61 g/4 Hrs, the “reduction in effective dose of sibutramine” value ([1]; 4 hour consumption) was 3 fold and the “% Reduction in Consumption” value ([1]; 24 h, 1 mg/kg po, experiment c) was 10%. For the same molecule, the “Treatment Consumption” value ([1]; 24 h, 1 mg/kg po, experiment c) was 27.4 ± 1.78 g/24 Hrs, the “% Reduction in Consumption” value ([1]; 24 h, 1 mg/kg po, experiment d) was 16% and the “Treatment Consumption” value ([1]; 24 h, 1 mg/kg po, experiment d) was 20.7 ± 1.05 g/24 Hrs. The “% Reduction in Consumption” value ([1]; 24 h, 3 mg/kg po, experiment c) was 28%, the “Treatment Consumption” value ([1]; 24 h, 3 mg/kg po, experiment c) was 21.9 ± 1.98 g/24 Hrs and the “% Reduction in Consumption” value ([1]; 24 h, 3 mg/kg po, experiment d) was 38%. For the same molecule, the “Treatment Consumption” value ([1]; 24 h, 3 mg/kg po, experiment d) was 15.4 ± 1.22 g/24 Hrs, the “% Reduction in Consumption” value [1, 4] was 52% and the “Treatment Consumption” value [1, 4] was 11.9 ± 1.15 g/24 Hrs. The “reduction in effective dose of sibutramine” value ([1]; 24 hour consumption) was 10 fold, the effect on consumption ([1]; given alone, oral administration required for a significant reduction) was “effective” and the “Treatment: % Weight Gain” value ([2]; 0.3 mg/kg po, experiment d) was 4.7 ± 0.5%. For the same molecule, the “% Reduction” value ([2]; 0.3 mg/kg po, experiment d) was −1.7%, the “Treatment: % Weight Gain” value ([2]; 3 mg/kg po) was −5.7 ± 1.2% and the “% Reduction” value ([2]; 3 mg/kg po) was −6.0%. The “reduction of weight gain against vehicle treated controls (reduction from baseline)” value ([2]; given alone) was 6%.

For `CC(C)(N)Cc1ccccc1` [Phentermine, phentermine], the “Treatment: % Weight Gain” value ([2]; 4 mg/kg sc, experiment c) was 4.2 ± 0.6% and the “% Reduction” value ([2]; 4 mg/kg sc, experiment c) was −1.1%.

Reference: patent US8748419B2, “Treating obesity with muscarinic receptor M1 antagonists” (priority 2006, dated 2014)
